Square brackets hold non-standard residues; d marks the D form. Ends that are not written are not given here. Cit = NC(=O)NCCC[C@H](N)C(=O)O
Assays:
[1] = tested on: draining lymph node cells; assay: IFN-γ production by ELISA after in vitro challenge with immunizing peptide; assay type: cell-based, mouse; conditions: DR4-IE tg mice immunized with the peptide
Protocol: (§1) DR4 tg mice were immunized intradermally at the interior side of both hind legs with 100 μl of peptide (1 μg/μl) emulsified in CFA (Difco Laboratories, Detroit, Mich.) in a 1:1 volume ratio. After 10 days, mice were sacrificed and their draining lymph nodes were removed for in vitro proliferation and cytokine assays.
(§2) Cell suspensions were prepared from the draining lymph nodes and cultured in 96-well plates at a concentration of 4×10^5 cells/well in the presence or absence of peptide antigen for 4 days. Anti-DR antibody (BD PharMingen, Mississauga, ON) was added to some cultures (1 μg/ml) to confirm DR restricted T cell responses as described previously (Andersson E C, Hansen B E, Jacobsen H, Madsen L S, Andersen C B, Engberg J, Rothbard J B, McDevitt G S, Malmstrom V, Holmdahl R, Svejgaard A, Fugger L. 1998. Definition of MHC and T cell receptor contacts in the HLA-DR4 restricted immunodominant epitope in type II collagen and characterization of collagen-induced arthritis in HLA-DR4 and human CD4 transgenic mice. Proc. Natl. Acad. Sci. USA. 95:7574). Culture supernatants were removed after 78 hrs to test IFN-γ production by ELISA (BD PharMingen, Mississauga, ON) as described previously (Hill, J. A., Wang, D., Jevnikar, A. M., Cairns, E., Bell, D. A. 2002. The relationship between predicted peptide-MHC class II affinity and T cell activation in a HLA-DRβ1*0401 MHC class II mouse model. Arthritis Res. 5:R40). Cytokine production was measured in duplicate and represents the average antigen specific cytokine production (cytokine production in control samples+2 SD were subtracted from the peptide specific cytokine production)±SD. Eighteen hours before culture termination, 1 μCi of [^3H] thymidine (ICN Biomedicals, Montreal, PQ) was added to each well to assess T cell proliferation. Proliferation experiments were conducted in triplicate and results are presented as average proliferation in cpm±SD or stimulation index (cpm of experimental sample/cpm of control sample)±SEM.

[2] = tested on: draining lymph node cells; assay: T cell proliferation recall response ([3H] thymidine) after peptide immunization of DR4-IE tg mice; assay type: cell-based, mouse; conditions: for T cell proliferative response: DR4-IE tg mice immunized with the peptide, 10 days later cells challenged in vitro with same peptide; for proliferative response in presence of anti-DR antibody: immunizing peptide plus anti-DR antibody
Protocol: as §1, §2

[3] = tested on: shared epitope negative (DRB1*0301, *0701, *0802, *1101, *1302); assay: Peptide-binding (competition) assay to purified MHC class II; design: species or system human
Protocol: (§3) Peptide binding affinity to purified HLA-DRB1*0101, *0401, *0404, *0301, *0701, *0802, *1101, and *1302 molecules was determined relative to radio-labelled peptide probes as described previously (Southwood S, Sidney J, Kondo A, del Guercio M F, Appella E, Hoffman S, Kubo R T, Chesnut R W, Grey H M, Sette A. 1998. Several common HLA-DR types share largely overlapping peptide binding repertoires. J. Immunol. 160:3363). The nM concentration of unlabelled vimentin peptide necessary for 50% inhibition of the labelled peptide to the purified HLA-DRB1 molecules (IC50) was used as an approximation of the affinity of interaction ([…]). Results are expressed as the inverse of the IC50 values measured in nM.

HLA-DRB1*0404 = HLA-DRB1*0404 (Homo sapiens, UniProt P01903+P01911, A100R/A169T/F76Y/I96L/K127E/L162R/M171V/N62H/P40V/Q125Y/R42H/S133A/S149N/S66Y/V209L/W38E); assay: as above; conditions: DRB1*0404, shared epitope positive
Protocol: as §3

HLA-DRB1*0101 = HLA-DRB1*0101 (Homo sapiens, UniProt P01903+P01911, A100R/D57E/F55L/F60I/F76Y/I96L/L162R/M171V/P40L/Q125E/R42F/V115G/Y59C); assay: as above; conditions: DRB1*0101, shared epitope positive
Protocol: as §3

HLA-DRB1*0401 = HLA-DRB1*0401 (Homo sapiens, UniProt P01903+P01911, A100K/A169T/F76Y/I96L/K127E/L162R/M171V/N62H/P40V/Q125Y/R42H/S133A/S149N/S66Y/V115G/V209L/W38E); assay: as above; conditions: DRB1*0401, shared epitope positive
Protocol: as §3

AGWLACitRSVRYPI (AGWLA[Cit]RSVRYPI) [P4Cit, altered human aggrecan peptide 280-292]
IFN-γ production [1]: induced
T cell proliferative response [2]: induced
proliferative response in presence of anti-DR antibody [2]: inhibited

AGWLADRSVRYPI (Human) [P4D, human aggrecan peptide 280-292]
IFN-γ production [1]: accompanied by IFN-γ production
T cell proliferative response [2]: strong proliferative response
proliferative response in presence of anti-DR antibody [2]: inhibited

AGWLARRSVRYPI (Human) [P4R, altered human aggrecan peptide 280-292]
IFN-γ production [1]: did not induce
T cell proliferative response [2]: did not induce

SAVRACitSSVPGVR (SAVRA[Cit]SSVPGVR) [Vim R70Cit, altered human vimentin peptide 65-77]
IFN-γ production [1]: accompanied by IFN-γ production
change of peptide affinity on conversion of arginine to citrulline ([3]; vs Vim 65-77): did not increase peptide affinity
T cell proliferative response [2]: strong proliferative response
proliferative response in presence of anti-DR antibody [2]: could also be inhibited
relative affinity for purified MHC (HLA-DRB1*0404): strikingly high affinity
relative affinity for purified MHC (HLA-DRB1*0101): strikingly high affinity
relative affinity for purified MHC (HLA-DRB1*0401): strikingly high affinity

SAVRARSSVPGVR (Human) [Vim 65-77, human vimentin peptide 65-77, unmodified]
IFN-γ production [1]: did not induce T cell activation
relative affinity for purified MHC [3]: low to intermediate affinity
T cell proliferative response [2]: did not induce T cell activation
activation of T cells primed by Vim R70Cit ([2]; Vim R70Cit immunized mice, challenged with the unmodified peptide, 10 μg/ml): could not be activated
relative affinity for purified MHC (HLA-DRB1*0404): low to intermediate affinity
relative affinity for purified MHC (HLA-DRB1*0101): low to intermediate affinity
relative affinity for purified MHC (HLA-DRB1*0401): low to intermediate affinity
